Publication PMC10915168, “DJ-1 protects proteins from acylation by catalyzing the hydrolysis of highly reactive cyclic 3-phosphoglyceric anhydride” (Nature Communications, 2024)

Target: T1, DJ-1 (Homo sapiens, UniProt Q99497, C106S)
T1 construct: gene PARK7; full-length, N-terminal His-tag removed by TEV protease; Ni-NTA purified recombinant; ~20 kDa
T1 sequence (Q99497 1-189 C106S): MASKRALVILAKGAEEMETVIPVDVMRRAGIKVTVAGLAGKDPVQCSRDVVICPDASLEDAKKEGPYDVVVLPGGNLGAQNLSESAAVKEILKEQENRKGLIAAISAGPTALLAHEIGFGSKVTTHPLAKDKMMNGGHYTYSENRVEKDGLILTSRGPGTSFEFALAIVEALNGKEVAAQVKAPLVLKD
Assay: end-point NAC assay of remaining cPGA; 1H-NMR
Format: biochemical
Details: 500 µM cPGA, 2 min, 50 mM sodium phosphate pH 7.0, 25 °C; catalytic cysteine mutant

## O=C1OP(=O)(O)OC[C@H]1O [cPGA]
  end-point NAC assay of remaining cPGA; 1H-NMR: Mutation of the catalytic cysteine (C106S) in DJ-1 completely abolished this activity
